Values quoted from earlier work as cited in patent US20070172525A1, “Anti-diabetic combinations” (priority 2007, published 2007).

Assays:
patients with T2DM [1] = system: patients with T2DM
patients with T2DM [2] = system: patients with T2DM; remark: listed apart in the source
patients with T2DM [3] = system: patients with T2DM; remark: listed apart in the source
[4] = oral
[5] = monotherapy, 100 or 200 mg daily
[6] = sitagliptin 100 mg daily added to metformin

Row | SMILES | Weight gain (patients with T2DM [1]; 24-week monotherapy studies) | HbA1C (patients with T2DM [1]; [5]) | Hypoglycemia (patients with T2DM [1]; [5]) | Patients achieved a HbA1C of <7% (patients with T2DM [2]; 24 weeks, sitagliptin 100 mg daily plus pioglitazone versus pioglitazone alone) [%] | Mean HbA1C reduction (patients with T2DM [2]; sitagliptin 100 mg daily added to pioglitazone (30 or 45 mg daily), 24 weeks, mean HbA1C 8.1%) [%] | Rates of hypoglycemia or weight gain relative to pioglitazone alone (patients with T2DM [2]; sitagliptin added to pioglitazone) | Patients achieving a HbA1C of <7% (patients with T2DM [3]; sitagliptin 100 mg daily added to at least 1,500 mg per day of metformin, mean HbA1C of 8%) [%] | Fasting glucose (patients with T2DM [3]; [6]) | Mean placebo-subtracted reduction in HbA1C (patients with T2DM [3]; [6]) [%] | Time to complete gastrointestinal absorption after ingestion [4] [h]
1 | N[C@@H](CC(=O)N1CCn2c(nnc2C(F)(F)F)C1)Cc1cc(F)c(F)cc1F [Sitagliptin] | no significant weight gain | significantly reduced | no significant increase | 45.4 | 0.7 | not associated with increased rates | 47 | significant reductions | 0.65 | –
2 | CN(C)C(=N)N=C(N)N [Conventional Metformin, Metformin] | – | – | – | – | – | – | – | – | – | ≤ 6
